Data: patent publication US20190053492A1, “SUBSTITUTED PYRIDINE COMPOUNDS AS PESTICIDES” (Bayer CropScience Aktiengesellschaft, priority 2016, published 2019)
Read-outs that look alike come from different tables or passages of the source.

Assays:
[1] = log P by HPLC on reversed-phase column (C 18), EEC Directive 79/831 Annex V.A8; format: physicochemical; settings: 55° C.; for LOGP_HCOOH: log P (HCOOH); for chromatographic logP: reversed-phase HPLC column (C 18)
Protocol: Temperature: 55° C. […] Called log P (HCOOH) in the table. […] Called log P (neutral) in the table.

Phaedon cochleariae = Phaedon cochleariae spray test; format: in vivo; settings: after 7 days, Chinese cabbage leaf discs
Protocol: Phaedon cochleariae—Spray Test
Solvent: 78.0 parts by weight of acetone • • 1.5 parts by weight of dimethylformamide
Emulsifier: alkylaryl polyglycol ether
To produce a suitable active ingredient formulation, 1 part by weight of active ingredient is dissolved with the specified parts by weight of solvent and made up with water containing an emulsifier concentration of 1000 ppm until the desired concentration is attained. To produce further test concentrations, the formulation is diluted with emulsifier-containing water.
Discs of Chinese cabbage leaves (Brassica pekinensis) are sprayed with an active ingredient formulation of the desired concentration and, after drying, populated with larvae of the mustard beetle (Phaedon cochleariae).
After 7 days, the efficacy in % is determined. 100% means that all the beetle larvae have been killed; 0% means that no beetle larvae have been killed.

Spodoptera frugiperda = Spodoptera frugiperda spray test; format: in vivo; settings: after 7 days, maize leaf discs
Procedure, shortened: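 Efficacy in % was scored at 7 days against armyworm caterpillars placed on dried, compound-sprayed Zea mays leaf discs. Compound was dissolved in acetone/dimethylformamide and diluted in water with 1000 ppm alkylaryl polyglycol ether. 100% means all caterpillars were killed.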

[2] = acidic range at pH 2.7, 0.1% aqueous formic acid and acetonitrile, HPLC on reversed-phase column (C 18)
[3] = log P, neutral range, HPLC on reversed-phase column (C 18)
[4] = acidic range pH 2.7, 0.1% aqueous formic acid and acetonitrile, reversed-phase column (C 18)
[5] = log P (neutral), HPLC reversed-phase column (C 18)

## N#Cc1ccc(CNC(=O)c2cc(-c3ncc(C(F)(F)F)cc3Cl)cc(NC(=O)C3CC3)n2)cc1 [Example I-119]
[1]; [2]
  LOGP_HCOOH: 3.53
[1]; [3]
  LOGP_NEUTRAL: 3.35
Phaedon cochleariae; application rate 100 g/ha
  efficacy (beetle larvae killed): 100%
Phaedon cochleariae; application rate 500 g/ha
  efficacy (beetle larvae killed): 100%
Spodoptera frugiperda; application rate 100 g/ha
  efficacy (caterpillars killed): 100%
Spodoptera frugiperda; application rate 500 g/ha
  efficacy (caterpillars killed): 100%

## CC(NC(=O)c1cc(-c2ccc(OC(F)(F)F)cc2)cc(NC(=O)C2CC2)n1)c1ccc(C#N)cc1 (racemic) [Example I-158]
[1]; [2]
  LOGP_HCOOH: 4.17
[1]; [3]
  LOGP_NEUTRAL: 4.02
Phaedon cochleariae; application rate 100 g/ha
  efficacy (beetle larvae killed): 83%
Phaedon cochleariae; application rate 500 g/ha
  efficacy (beetle larvae killed): 100%
Spodoptera frugiperda; application rate 100 g/ha
  efficacy (caterpillars killed): 100%
Spodoptera frugiperda; application rate 500 g/ha
  efficacy (caterpillars killed): 100%

## O=C(NC(=O)c1cc(-c2ccc(C(F)(F)C(F)(F)F)c(F)c2)cc(NC(=O)C2CC2)n1)c1ccc([N+](=O)[O-])cc1 [Example I-263]
[1]; [4]
  LOGP_HCOOH: 4.57
[1]; [5]
  LOGP_NEUTRAL: 4.54
Phaedon cochleariae; application rate 500 g/ha
  efficacy (beetle larvae killed): 100%
Spodoptera frugiperda; application rate 500 g/ha
  efficacy (caterpillars killed): 100%

## N#Cc1c(F)cc(CNC(=O)c2cc(-c3ccc(OC(F)(F)F)cc3)cc(NC(=O)C3CC3)n2)cc1F [Example I-111]
[1]; [2]
  LOGP_HCOOH: 4.18
[1]; [3]
  LOGP_NEUTRAL: 4.02
Phaedon cochleariae; application rate 100 g/ha
  efficacy (beetle larvae killed): 100%
Phaedon cochleariae; application rate 500 g/ha
  efficacy (beetle larvae killed): 100%
Spodoptera frugiperda; application rate 100 g/ha
  efficacy (caterpillars killed): 100%
Spodoptera frugiperda; application rate 500 g/ha
  efficacy (caterpillars killed): 100%

## O=C(NCc1ccc(-c2nnco2)cc1)c1cc(-c2ccc(OC(F)(F)F)cc2)cc(NC(=O)C2CC2)n1 [Example I-112]
[1]; [2]
  LOGP_HCOOH: 3.41
[1]; [3]
  LOGP_NEUTRAL: 3.37
Phaedon cochleariae; application rate 500 g/ha
  efficacy (beetle larvae killed): 100%
Spodoptera frugiperda; application rate 100 g/ha
  efficacy (caterpillars killed): 83%
Spodoptera frugiperda; application rate 500 g/ha
  efficacy (caterpillars killed): 100%

## N#Cc1ccc(CNC(=O)c2cc(-c3c(Cl)cc(C(F)(F)C(F)(F)F)cc3Cl)cc(NC(=O)C3CC3)n2)cc1 [Example I-268]
[1]; [4]
  LOGP_HCOOH: 4.05
Phaedon cochleariae; application rate 100 g/ha
  efficacy (beetle larvae killed): 83%
Phaedon cochleariae; application rate 500 g/ha
  efficacy (beetle larvae killed): 83%
Spodoptera frugiperda; application rate 100 g/ha
  efficacy (caterpillars killed): 100%
Spodoptera frugiperda; application rate 500 g/ha
  efficacy (caterpillars killed): 100%

## N#Cc1cc(F)c(CNC(=O)c2cc(-c3ccc(OC(F)(F)F)cc3)cc(NC(=O)C3CC3)n2)cc1F [Example I-086]
[1]; [4]
  LOGP_HCOOH: 4.15
[1]; [3]
  LOGP_NEUTRAL: 4.02
Phaedon cochleariae; application rate 500 g/ha
  efficacy (beetle larvae killed): 100%
Spodoptera frugiperda; application rate 100 g/ha
  efficacy (caterpillars killed): 100%
Spodoptera frugiperda; application rate 500 g/ha
  efficacy (caterpillars killed): 83%

## O=C(NCC1CC1)c1cc(-c2ccc(C(F)(F)F)cc2)cc(NC(=O)C2CC2)n1 [Example I-012]
[1]; [4]
  LOGP_HCOOH: 3.78
[1]; [3]
  LOGP_NEUTRAL: 3.66
Phaedon cochleariae; application rate 100 g/ha
  efficacy (beetle larvae killed): 100%
Phaedon cochleariae; application rate 500 g/ha
  efficacy (beetle larvae killed): 100%
Spodoptera frugiperda; application rate 500 g/ha
  efficacy (caterpillars killed): 100%

## N#Cc1ccc(CNC(=O)c2cc(-c3ccc(SC(F)(F)F)cc3)cc(NC(=O)C3CC3)n2)cn1 [Example I-090]
[1]; [4]
  LOGP_HCOOH: 3.79
[1]; [3]
  LOGP_NEUTRAL: 3.72
Phaedon cochleariae; application rate 500 g/ha
  efficacy (beetle larvae killed): 100%
Spodoptera frugiperda; application rate 100 g/ha
  efficacy (caterpillars killed): 83%
Spodoptera frugiperda; application rate 500 g/ha
  efficacy (caterpillars killed): 100%

## N#Cc1ccc(CNC(=O)c2cc(-c3ccc(C(F)(F)F)cc3)cc(NC(=O)C3CC3)n2)cn1 [Example I-042]
[1]; [4]
  LOGP_HCOOH: 3.36
[1]; [3]
  LOGP_NEUTRAL: 3.26
Phaedon cochleariae; application rate 100 g/ha
  efficacy (beetle larvae killed): 100%
Phaedon cochleariae; application rate 500 g/ha
  efficacy (beetle larvae killed): 100%
Spodoptera frugiperda; application rate 100 g/ha
  efficacy (caterpillars killed): 83%
Spodoptera frugiperda; application rate 500 g/ha
  efficacy (caterpillars killed): 100%

## N#Cc1ccc(CNC(=O)c2cc(-c3c(Cl)cc(C(F)(F)C(F)(F)F)c(F)c3Cl)cc(NC(=O)C3CC3)n2)cc1 [Example I-276]
[1]; [4]
  LOGP_HCOOH: 4.57
Phaedon cochleariae; application rate 500 g/ha
  efficacy (beetle larvae killed): 100%
Spodoptera frugiperda; application rate 500 g/ha
  efficacy (caterpillars killed): 83%

## CC(NC(=O)c1cc(-c2ccc(C(F)(F)F)cc2)cc(NC(=O)C2CC2)n1)c1ccc(C(F)(F)F)cc1 (centres unmarked) [Example I-057]
[1]; [4]
  LOGP_HCOOH: 4.91
[1]; [3]
  LOGP_NEUTRAL: 4.77
Phaedon cochleariae; application rate 500 g/ha
  efficacy (beetle larvae killed): 83%
Spodoptera frugiperda; application rate 500 g/ha
  efficacy (caterpillars killed): 100%

## N#Cc1ccc(CNC(=O)c2cc(-c3ccc(C(F)(F)F)cc3)cc(NC(=O)C3CCC3)n2)cc1 [Example I-045]
[1]; [4]
  LOGP_HCOOH: 4.14
[1]; [3]
  LOGP_NEUTRAL: 3.99
Phaedon cochleariae; application rate 100 g/ha
  efficacy (beetle larvae killed): 100%
Phaedon cochleariae; application rate 500 g/ha
  efficacy (beetle larvae killed): 83%
Spodoptera frugiperda; application rate 500 g/ha
  efficacy (caterpillars killed): 100%

## N#Cc1ccc(CNC(=O)c2cc(-c3ccc(C(F)(F)F)nc3)cc(NC(=O)C3CC3)n2)cc1 [Example I-123, N-(4-Cyanobenzyl)-6′-[(cyclopropylcarbonyl)amino]-6-(trifluoromethyl)-3,4′-bipyridine-2′-carboxamide]
[1]; [3]
  LOGP_NEUTRAL: 2.99
[1]; pH 2.7, LC-MS acidic range, pH 2.7, 0.1% formic acid/acetonitrile, read-out: log P (acidic) / log P (HCOOH)
  chromatographic logP: 3.02
[1]; pH 2.7, log P (HCOOH), acidic range at pH 2.7, 0.1% aqueous formic acid and acetonitrile, HPLC on reversed-phase column (C 18), read-out: LOGP_HCOOH
  chromatographic logP: 3.13
Phaedon cochleariae; Phaedon cochleariae, foliar, 168 h, application rate 500 g/ha, read-out: efficacy (beetle larvae killed)
  pest or weed control at 500 g/ha: 100%
Spodoptera frugiperda; Spodoptera frugiperda, foliar, 168 h, application rate 500 g/ha, read-out: efficacy (caterpillars killed)
  pest or weed control at 500 g/ha: 100%

## N#Cc1ccc(CNC(=O)c2cc(-c3ccc(OC(F)(F)C(F)(F)F)cc3)cc(NC(=O)C3CC3)n2)cc1 [Example I-191]
[1]; [2]
  LOGP_HCOOH: 4.38
Phaedon cochleariae; application rate 500 g/ha
  efficacy (beetle larvae killed): 83%
Spodoptera frugiperda; application rate 500 g/ha
  efficacy (caterpillars killed): 100%

## O=C(NC1(C(F)(F)F)CC1)c1cc(-c2ccc(OC(F)(F)F)cc2)cc(NC(=O)C2CC2)n1 [Example I-137]
[1]; [2]
  LOGP_HCOOH: 4.17
Phaedon cochleariae; application rate 100 g/ha
  efficacy (beetle larvae killed): 100%
Phaedon cochleariae; application rate 500 g/ha
  efficacy (beetle larvae killed): 100%
Spodoptera frugiperda; application rate 100 g/ha
  efficacy (caterpillars killed): 100%
Spodoptera frugiperda; application rate 500 g/ha
  efficacy (caterpillars killed): 100%

## CCNC(=O)c1cc(-c2ccc(C(F)(F)F)cc2)cc(NC(=O)C2CC2)n1 [Example I-016]
[1]; [4]
  LOGP_HCOOH: 3.30
[1]; [3]
  LOGP_NEUTRAL: 3.23
Phaedon cochleariae; application rate 500 g/ha
  efficacy (beetle larvae killed): 83%
Spodoptera frugiperda; application rate 500 g/ha
  efficacy (caterpillars killed): 100%

## N#Cc1ccc(CNC(=O)c2cc(-c3ccc(OC(F)(F)F)cc3)cc(NC(=O)C3(Cl)CC3)n2)cc1 [Example I-205]
[1]; [3]
  LOGP_NEUTRAL: 4.62
Phaedon cochleariae; application rate 500 g/ha
  efficacy (beetle larvae killed): 100%
Spodoptera frugiperda; application rate 100 g/ha
  efficacy (caterpillars killed): 100%
Spodoptera frugiperda; application rate 500 g/ha
  efficacy (caterpillars killed): 100%

## N#Cc1ccc(NC(=N)c2cc(-c3ccc(OC(F)(F)F)cc3)cc(NC(=O)C3CC3)n2)cc1 [Example I-261]
[1]; [4]
  LOGP_HCOOH: 2.09
[1]; [5]
  LOGP_NEUTRAL: 4.19
Phaedon cochleariae; application rate 500 g/ha
  efficacy (beetle larvae killed): 83%
Spodoptera frugiperda; application rate 100 g/ha
  efficacy (caterpillars killed): 100%
Spodoptera frugiperda; application rate 500 g/ha
  efficacy (caterpillars killed): 100%

## N#Cc1ccc(CNC(=O)c2cc(-c3cc(F)c(C(F)(F)C(F)(F)F)c(F)c3)cc(NC(=O)C3CC3)n2)cc1 [Example I-271]
[1]; [4]
  LOGP_HCOOH: 4.23
Phaedon cochleariae; application rate 500 g/ha
  efficacy (beetle larvae killed): 83%
Spodoptera frugiperda; application rate 500 g/ha
  efficacy (caterpillars killed): 100%

## O=C(NCc1ccc(Cl)cc1F)c1cc(-c2ccc(C(F)(F)F)cc2)cc(NC(=O)C2CC2)n1 [Example I-066]
[1]; [4]
  LOGP_HCOOH: 4.63
[1]; [3]
  LOGP_NEUTRAL: 4.53
Phaedon cochleariae; application rate 500 g/ha
  efficacy (beetle larvae killed): 100%
Spodoptera frugiperda; application rate 500 g/ha
  efficacy (caterpillars killed): 100%

## N#CCCCCNC(=O)c1cc(-c2ccc(OC(F)(F)F)cc2)cc(NC(=O)C2CC2)n1 [Example I-157]
[1]; [2]
  LOGP_HCOOH: 3.38
[1]; [3]
  LOGP_NEUTRAL: 3.26
Phaedon cochleariae; application rate 500 g/ha
  efficacy (beetle larvae killed): 100%
Spodoptera frugiperda; application rate 100 g/ha
  efficacy (caterpillars killed): 100%
Spodoptera frugiperda; application rate 500 g/ha
  efficacy (caterpillars killed): 83%

## O=C(NC1CCC(C(F)(F)F)CC1)c1cc(-c2ccc(OC(F)(F)F)cc2)cc(NC(=O)C2CC2)n1 (centres unmarked) [Example I-146]
[1]; [2]
  LOGP_HCOOH: 4.77
[1]; [3]
  LOGP_NEUTRAL: 4.60
Phaedon cochleariae; application rate 500 g/ha
  efficacy (beetle larvae killed): 100%
Spodoptera frugiperda; application rate 500 g/ha
  efficacy (caterpillars killed): 83%
